For 27 compounds, Kd results are on record in US11028079B2 (ConverGene LLC, priority 2015, dated 2021).

Structures are written as SMILES.

In this assay the target is T1, BRD4 bromodomains (Homo sapiens, UniProt O60885).
T1 construct: fused on or other part: T7 phage capsid protein (phage-display fusion; the phage DNA is read out by qPCR)
Nature of the assay: BROMOscan bromodomain competition binding assay (DiscoveRx). The settings on record: Kd from 11 compound concentrations ranging from 0 to 10 μM, read-out: BROMOscan Relative Activity. The method, then:
Bromodomain assays were conducted to measure interactions between certain compounds and bromodomains.
The assays were conducted according to BROMOscan protocol from Discover Rx. Briefly, BRD4 bromodomains expressed as a fusion capsid protein of T7 phage were bound to acetylated peptide ligand on a solid phase and competition bindings were performed. T7 phage strains displaying bromodomains were grown in parallel in 24-well blocks in an E. coli host derived from the BL21 strain. E. coli were grown to log-phase and infected with T7 phage from a frozen stock (multiplicity of infection=0.4) and incubated with shaking at 32° C. until lysis (90-150 minutes). The lysates were centrifuged (5,000×g) and filtered (0.2 μm) to remove cell debris. […] The liganded beads were blocked with excess biotin and washed with blocking buffer (SeaBlock (Pierce), 1% BSA, 0.05% Tween 20, 1 mM DTT) to remove unbound ligand and to reduce non-specific phage binding. […] Test compounds were prepared as 1000× stocks in 100% DMSO and subsequently diluted 1:10 in monoethylene glycol (MEG) to create stocks at 100× the screening concentration (resulting stock solution is 10% DMSO/90% MEG). The compounds were then diluted directly into the assays such that the final concentration of DMSO and MEG were 0.1% and 0.9%, respectively. All reactions were performed in polystyrene 96-well plates in a final volume of 0.135 ml. […] The bromodomain concentration in the eluates was measured by qPCR. Data was collected at 11 compound concentrations ranging from 0 to 10 μM. Kd values were then derived from a standard dose-response curve generated with Hill equation (Hill Slope was set to ˜1) and a non-linear least square fit with the Levenberg-Marquardt algorithm. Response=Background+Signal−Background/1+(Kd Hill Slope/Dose Hill Slope)
As for `Cc1cnc(CNC(=O)c2nc(NCc3cccc(Cl)c3)c3cc(-c4c(C)noc4C)ccc3n2)s1` [Example 213, 4-((3-chlorobenzyl)amino)-6-(3,5-dimethylisoxazol-4-yl)-N-((5-methylthiazol-2-yl)methyl)quinazoline-2-carboxamide], the Kd was under 500 nM.

Turning to `Cc1noc(C)c1-c1ccc2nc(-c3cnn(C)c3)nc(NCc3cccc(Cl)c3)c2c1` [Example 49, N-(3-chlorobenzyl)-6-(3,5-dimethylisoxazol-4-yl)-2-(1-methyl-1H-pyrazol-4-yl)quinazolin-4-amine], the Kd is under 500 nM.

With `Cc1noc(C)c1-c1ccc2nc(C(=O)NC3CN(C)C3)nc(N3CCOC[C@@H]3c3ccccc3)c2c1` [Example 277, (S)-6-(3,5-dimethylisoxazol-4-yl)-N-(1-methylazetidin-3-yl)-4-(3-phenylmorpholino)quinazoline-2-carboxamide], the Kd was under 500 nM.

As to `Cc1noc(C)c1-c1ccc2nc(C(=O)NCc3cnn(C)c3C)nc(NCc3cccc(Cl)c3)c2c1` [Example 190, 4-((3-chlorobenzyl)amino)-N-((1,5-dimethyl-1H-pyrazol-4-yl)methyl)-6-(3,5-dimethylisoxazol-4-yl)quinazoline-2-carboxamide], the Kd was under 500 nM.

As for `Cc1noc(C)c1-c1ccc2nc(C(=O)NC3CCOCC3)nc(NCc3cncc(Cl)c3)c2c1` [Example 229, 4-(((5-chloropyridin-3-yl)methyl)amino)-6-(3,5-dimethylisoxazol-4-yl)-N-(tetrahydro-2H-pyran-4-yl)quinazoline-2-carboxamide], the Kd was under 500 nM.

For the compound `Cc1noc(C)c1-c1ccc2nc(N3CCS(=O)(=O)CC3)nc(NCc3cccc(Cl)c3)c2c1` [Example 243, 4-(4-((3-chlorobenzyl)amino)-6-(3,5-dimethylisoxazol-4-yl)quinazolin-2-yl)thiomorpholine 1,1-dioxide], the Kd fell in the range of 500 to 5000 nM.

Take `CN(C)C(=O)CN1CCN(c2nc(NCc3cccc(Cl)c3)c3cc(-c4ccc(=O)n(C)c4)ccc3n2)CC1` [Example 110, 2-(4-(4-((3-chlorobenzyl)amino)-6-(1-methyl-6-oxo-1,6-dihydropyridin-3-yl)quinazolin-2-yl)piperazin-1-yl)-N,N-dimethylacetamide]: the Kd is under 500 nM.

Regarding `Cc1noc(C)c1-c1ccc2nc(C(=O)N[C@H]3CC[C@H](O)CC3)nc(N3CCOC[C@@H]3c3ccccc3)c2c1` [Example 273, 6-(3,5-dimethylisoxazol-4-yl)-N-((trans)-4-hydroxycyclohexyl)-4-((S)-3-phenylmorpholino)quinazoline-2-carboxamide], the Kd was under 500 nM.

`Cc1noc(C)c1-c1ccc2nc(N3CCN(C(=O)CO)CC3)nc(NCc3cncc(Cl)c3)c2c1` [Example 132, 1-(4-(4-(((5-chloropyridin-3-yl)methyl)amino)-6-(3,5-dimethylisoxazol-4-yl)quinazolin-2-yl)piperazin-1-yl)-2-hydroxyethanone]: the Kd was under 500 nM.

Regarding `Cc1noc(C)c1CNC(=O)c1nc(NCc2cccc(Cl)c2)c2cc(-c3c(C)noc3C)ccc2n1` [Example 259, 4-((3-chlorobenzyl)amino)-6-(3,5-dimethylisoxazol-4-yl)-N-((3,5-dimethylisoxazol-4-yl)methyl)quinazoline-2-carboxamide], the Kd is under 500 nM.

For the compound `CC(=O)N1CCN(c2nc(-c3cnn(CC(C)(C)O)c3)nc3ccc(-c4c(C)noc4C)cc23)[C@@H](c2ccccc2)C1` [Example 309, (S)-1-(4-(6-(3,5-dimethylisoxazol-4-yl)-2-(1-(2-hydroxy-2-methylpropyl)-1H-pyrazol-4-yl)quinazolin-4-yl)-3-phenylpiperazin-1-yl)ethan-1-one], the Kd was under 500 nM.

As for `Cc1noc(C)c1-c1ccc2ncnc(N3CCOCC3c3ccccc3)c2c1` (stereo not drawn) [Example 264, 4-(6-(3,5-dimethylisoxazol-4-yl)quinazolin-4-yl)-3-phenylmorpholine], the Kd was under 500 nM.

On to `Cc1noc(C)c1-c1ccc2nc(C(=O)NCc3ccnc(Cl)c3)nc(NCc3cncc(Cl)c3)c2c1` [Example 206, 4-(((5-chloropyridin-3-yl)methyl)amino)-N-((2-chloropyridin-4-yl)methyl)-6-(3,5-dimethylisoxazol-4-yl)quinazoline-2-carboxamide], for which the Kd was under 500 nM.

For `CN(C)CCN1CCN(c2nc(NCc3cccc(Cl)c3)c3cc(-c4cn[nH]c4)ccc3n2)CC1` [Example 64, N-(3-chlorobenzyl)-2-(4-(2-(dimethylamino)ethyl)piperazin-1-yl)-6-(1H-pyrazol-4-yl)quinazolin-4-amine], the Kd was over 5000 nM.

For `Cn1cc(-c2ccc3nc(-c4cnn(CCO)c4)nc(NCc4cccc(Cl)c4)c3c2)ccc1=O` [Example 114, 5-(4-((3-chlorobenzyl)amino)-2-(1-(2-hydroxyethyl)-1H-pyrazol-4-yl)quinazolin-6-yl)-1-methylpyridin-2(1H)-one], the Kd lay in the range of 500 to 5000 nM.

On to `Cc1noc(C)c1-c1ccc2nc(C(=O)NCC3CN(C)C3)nc(NCc3cccc(Cl)c3)c2c1` [Example 200, 4-((3-chlorobenzyl)amino)-6-(3,5-dimethylisoxazol-4-yl)-N-((1-methylazetidin-3-yl)methyl)quinazoline-2-carboxamide], for which the Kd is under 500 nM.

For the compound `Cc1noc(C)c1-c1ccc2nc(-c3cnn(C4COC4)c3)nc(NCc3cccc(Cl)c3)c2c1` [Example 61, N-(3-chlorobenzyl)-6-(3,5-dimethylisoxazol-4-yl)-2-(1-(oxetan-3-yl)-1H-pyrazol-4-yl)quinazolin-4-amine], the Kd is under 500 nM.

On to `Cc1noc(C)c1-c1ccc2nc(N3CCc4c(cnn4C)C3)nc(N3CCOC[C@@H]3c3ccccc3)c2c1` [Example 289, (S)-4-(6-(3,5-dimethylisoxazol-4-yl)-2-(1-methyl-1,4,6,7-tetrahydro-5H-pyrazolo[4,3-c]pyridin-5-yl)quinazolin-4-yl)-3-phenylmorpholine], for which the Kd was under 500 nM.

Regarding `Cc1noc(C)c1-c1ccc2nc(-c3cnn(CCO)c3)nc(NC3(c4cccc(Cl)c4)CC3)c2c1` [Example 164, 2-(4-(4-((1-(3-chlorophenyl)cyclopropyl)amino)-6-(3,5-dimethylisoxazol-4-yl)quinazolin-2-yl)-1H-pyrazol-1-yl)ethanol], the Kd was under 500 nM.

`Cc1ccc(CNc2nc(N3CCN(CCN(C)C)CC3)nc3ccc(-c4c(C)noc4C)cc23)s1` [Example 88, 2-(4-(2-(dimethylamino)ethyl)piperazin-1-yl)-6-(3,5-dimethylisoxazol-4-yl)-N-((5-methylthiophen-2-yl)methyl)quinazolin-4-amine]: the Kd is under 500 nM.

For the compound `Cc1noc(C)c1-c1ccc2nc(C3=CCN(S(C)(=O)=O)CC3)nc(NCc3cccc(Cl)c3)c2c1` [Example 210, N-(3-chlorobenzyl)-6-(3,5-dimethylisoxazol-4-yl)-2-(1-(methylsulfonyl)-1,2,3,6-tetrahydropyridin-4-yl)quinazolin-4-amine], the Kd fell in the range of 500 to 5000 nM.

As to `Cc1noc(C)c1-c1ccc2nc(N3CCN(CCN(C)C)CC3)nc(NCc3ccc(F)cc3)c2c1` [Example 99, 2-(4-(2-(dimethylamino)ethyl)piperazin-1-yl)-6-(3,5-dimethylisoxazol-4-yl)-N-(4-fluorobenzyl)quinazolin-4-amine], the Kd is 500 to 5000 nM.

Take `Cc1noc(C)c1-c1ccc2nc(C(=O)NC3CCS(=O)(=O)CC3)nc(NC3(c4cccc(Cl)c4)CC3)c2c1` [Example 246, 4-((1-(3-chlorophenyl)cyclopropyl)amino)-6-(3,5-dimethylisoxazol-4-yl)-N-(1,1-dioxidotetrahydro-2H-thiopyran-4-yl)quinazoline-2-carboxamide]: the Kd is under 500 nM.

Consider `Cc1noc(C)c1-c1ccc2nc(N3CCc4[nH]ncc4C3)nc(N3CCOC[C@@H]3c3ccccc3)c2c1` [Example 282, (S)-4-(6-(3,5-dimethylisoxazol-4-yl)-2-(1,4,6,7-tetrahydro-5H-pyrazolo[4,3-c]pyridin-5-yl)quinazolin-4-yl)-3-phenylmorpholine], for which the Kd was under 500 nM.

In the case of `Cn1cc(-c2ccc3nc(-c4cnn(CC(N)=O)c4)nc(NCc4cccc(Cl)c4)c3c2)ccc1=O` [Example 101, 2-(4-(4-((3-chlorobenzyl)amino)-6-(1-methyl-6-oxo-1,6-dihydropyridin-3-yl)quinazolin-2-yl)-1H-pyrazol-1-yl)acetamide], the Kd is under 500 nM.

For `Cc1noc(C)c1-c1ccc2nc(C(=O)N[C@H]3CC[C@H](O)CC3)cc(NCc3cccc(Cl)c3)c2c1` [Example 274, 4-((3-chlorobenzyl)amino)-6-(3,5-dimethylisoxazol-4-yl)-N-((trans)-4-hydroxycyclohexyl)quinoline-2-carboxamide], the Kd is under 500 nM.

For the compound `Cn1cc(-c2ccc3nc(-c4cnn(CC(C)(C)O)c4)nc(N4CCOC[C@@H]4c4ccccc4)c3c2)ccc1=O` [Example 292, (S)-5-(2-(1-(2-hydroxy-2-methylpropyl)-1H-pyrazol-4-yl)-4-(3-phenylmorpholino)quinazolin-6-yl)-1-methylpyridin-2(1H)-one], the Kd is under 500 nM.
